Laboratory results: patent US20260234164A1, “BIPHENYL COMPOUND AS IMMUNOMODULATOR, PREPARATION METHOD THEREFOR AND USE THEREOF” (SHENZHEN CHIPSCREEN BIOSCIENCES CO., LTD., priority 2021, published 2026)

What was measured:
[1] = Pharmacokinetic assay after repeated oral administration; type: in vivo, B-hPD-1/hPD-L1 mice; conditions: female, B-hPD-1/hPD-L1, mouse; plasma, 50 mg/kg oral once a day, after administration on the 18th day
Description: Twenty-four female B-hPD-1/hPD-L1 mice aged 6-8 weeks were purchased from Biocytogen Jiangsu Gene Biotechnology Co., Ltd. The mice were randomly divided into 4 groups, 6 mice in each group. The test compounds were prepared in a vehicle containing 5% DMSO, 60% PEG400 and 35% purified water, including I-1 and 3 control molecules Example 17, Compound 14 (INCB086550), and Example 180. The compounds were administered orally at 50 mg/kg, once a day. The blood was collected alternately through the fundus venous plexus after the administration on the 18th day. The blood collection time points were 15 min, 30 min, 1 h, 2 h, 4 h, 8h, 24 h and 32h. About 0.1 mL of blood was collected in a centrifuge tube (anticoagulated with sodium heparin), and centrifuged at 5000 rpm for 5 min. Then the plasma was separated, and frozen at −20° C. for later detection. After the plasma samples were processed, the concentration of the compounds in the plasma was determined by liquid chromatography-mass spectrometry (LC-MS/MS). The pharmacokinetic parameters were calculated using Phoenix WinNonlin 7.0.

[2] = Tumor tissue distribution assay in MC38-PD-L1 tumor-bearing mice; type: in vivo, B-hPD-1/hPD-L1 humanized mice; conditions: 50 mg/kg oral once/day
Description: 16 B-hPD-1/hPD-L1 humanized female mice, aged 6-8 weeks were purchased from Biocytogen Jiangsu Gene Biotechnology Co., Ltd. After 1 week of adaptation, the mice were subcutaneously inoculated with MC38-PD-L1 cells at 2×10^6 cells/site. After the tumor grew to about […], the mice were divided into 4 groups, 4 mice in each group. The test compounds were formulated in a vehicle containing 5% DMSO, 60% PEG400 and 35% purified water, including I-1 and 3 control molecules Example 17, Compound 14 (INCB086550), and Example 180. The compounds were orally administered at 50 mg/kg, once/day. The blood and tumor tissue were collected 4 h and 24 h after administration on the 18th day. A certain amount of tissue was weighed, and added with phosphate-buffered saline (PBS) solution for homogenization. After the sample was processed, it was analyzed by LC-MS/MS to determine the concentration of the compound in plasma and tissue.

AUC(0-t) [1]: 123 µg·h/mL | MRT [1]: 13.5 h | half-life [1]: 10.3 h | Ratio of I-1 to control molecule (tumor tissue concentration) ([2]; 4 h after administration on the 18th day): 1.0 | Ratio of I-1 to control molecule (tumor tissue concentration) ([2]; 24 h after administration on the 18th day): 1.0 | concentration at 4 h ([2]; female, B-hPD-1/hPD-L1 humanized, mouse, tumor tissue, 4 h after administration on the 18th day): 39200 ng/g | concentration at 24 h ([2]; female, B-hPD-1/hPD-L1 humanized, mouse, tumor tissue, 24 h after administration on the 18th day): 27200 ng/g
SMILES: [2H]C([2H])([2H])OCC12CCC(CCN3CCc4c(nc(C(=O)Nc5cccc(-c6cccc(NC(=O)c7nc8c(n7C)CCN(CCC79CCC(C(=O)O)(CC7)C9)C8)c6Cl)c5Cl)n4C)C3)(CC1)C2 [Compound I-1, 4-(2-(2-((2,2′-dichloro-3′-(5-(2-(4-((methoxy-d3)methyl)bicyclo[2.2.1]heptane-1-yl)ethyl)-1-methyl-4,5,6,7-tetrahydro-1H-imidazo[4,5-c]pyridine-2-carboxamido)-[1,1′-biphenyl]-3-yl)carbamoyl)-1-methyl-1,4,6,7-tetrahydro-5H-imidazo[4,5-c]pyridin-5-yl)ethyl)bicyclo[2.2.1]heptane-1-carboxylic acid]
